Consider two compounds from US20160278381A1, “Agricultural And Horticultural Fungicidal Composition And Method Of Use Of the Same” (NIHON NOHYAKU CO., LTD., priority 2015, published 2016).

The subject of the experiment is Pythium aphanidermatum. As to the kind of experiment: Test Example 1: spray on lawn grass sods, inoculation with Pythium aphanidermatum, control value from lesion diameter. Format: in vivo. Particulars: for Control Value (%): alone, lesion diameter seven days after inoculation; for efficacy against Pythium aphanidermatum: treated each alone. The text has this: With a hand spray, chemical agents (no spreader added) prepared from commercial formulations at the predetermined concentrations were sprayed with the volume of 0.25 l/m^2. Seven days after the final spraying, with a hole cutter (10 cm in diameter), two sods were cut out, transferred into a greenhouse and inoculated with Pythium aphanidermatum.
For the test plot for the present invention, chemical solutions of tiadinil and chlorothalonil were each prepared, and each of the chemical solutions were blended for use as compositions and combinations.
Seven days after the inoculation, lesion diameters in each treated plots and the untreated plot were measured for calculating the control values for each treated plots using an equation below.
In general, in a case, where two active ingredients given are mixed and treated, if the actual efficacy measured is larger than the Colby's expectation value (E) calculated using the Colby's equation below, wherein value (E) is interpreted to denote an expected control value (%) which is predicted by the combination of the two active ingredients, the function achieved by the combination of the two active ingredients is determined to be synergistic.
(wherein X represents the preventive value (%) of one of the active ingredients and Y represents the preventive value (%) of the other active ingredient.)

`N#Cc1c(Cl)c(Cl)c(Cl)c(C#N)c1Cl` [Chlorothalonil, chlorothalonil]: the “efficacy against Pythium aphanidermatum” value was “did not show sufficient efficacy”. The “Control Value (%)” value (dose 1.1 fl oz/1,000 ft^2) amounted to 22%.

Turning to `Cc1ccc(NC(=O)c2snnc2C)cc1Cl` [Tiadinil, tiadinil], the “efficacy against Pythium aphanidermatum” value is on record as “did not show sufficient efficacy”. Further, where the note is “dose 0.15625 fl oz/1,000 ft^2”, the “Control Value (%)” value came out at 11%. In addition, under “dose 0.3125 fl oz/1,000 ft^2”, the “Control Value (%)” value is 11%. Also, the “Control Value (%)” value (dose 0.625 fl oz/1,000 ft^2) came to 22%. Besides, the “Control Value (%)” value (dose 1.25 fl oz/1,000 ft^2) worked out at 22%.
